Read-outs that look alike come from different tables or passages of the source.
What was measured:
A-2 receptors = details: rank order; cited from earlier work
Adenosine A-1 receptor [1] = biological target: T1, Adenosine A-1 receptor (Rattus norvegicus, UniProt P25099); experiment: Test for affinity for brain adenosine A-1 receptor binding sites ([3H]cyclohexyladenosine displacement); details: ratio of A-2 Ki to A-1 Ki
T1 sequence (P25099 1-326): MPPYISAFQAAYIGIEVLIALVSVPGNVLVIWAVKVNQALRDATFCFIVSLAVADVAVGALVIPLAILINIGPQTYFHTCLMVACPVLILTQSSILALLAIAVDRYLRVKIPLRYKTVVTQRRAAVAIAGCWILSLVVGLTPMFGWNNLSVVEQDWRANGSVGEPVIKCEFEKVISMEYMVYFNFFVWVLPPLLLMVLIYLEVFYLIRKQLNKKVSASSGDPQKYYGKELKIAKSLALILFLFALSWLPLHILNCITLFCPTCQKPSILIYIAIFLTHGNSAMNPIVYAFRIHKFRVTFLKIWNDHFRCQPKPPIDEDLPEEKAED

Adenosine A-1 receptor [2] = biological target: T1, Adenosine A-1 receptor
A-1 receptors = details: cited from earlier work
[3] = system: effects of adenosine analogs on heart rate and blood pressure; details: heart rate compared with blood pressure; cited from earlier work

In the case of `Nc1nc(Cl)nc2c1ncn2[C@@H]1O[C@H](CO)[C@@H](O)[C@H]1O` [2-chloroadenosine], the “order of potency at A-2 receptors” value (A-2 receptors) is listed as “NECA>2-chloroadenosine>R-PIA>CHA”.

For `C1=Nc2c(cnn2-c2ccccc2)C2=N[C@H](Cc3ccccc3)CN12` [Compound 3, (R)-2,7-dihydro-7-phenyl-2-(phenylmethyl)-3H-imidazo-[1,2-c]pyrazolo-[4,3-e]pyrimidine], the “A-2 Ki/A-1 Ki” value (Adenosine A-1 receptor [1]) was 13.20.

With `C1=Nc2c(ncn2-c2ccccc2)C2=N[C@H](Cc3ccccc3)CN12` [Compound 6, (R)-7,8-dihydro-3-phenyl-8-(phenylmethyl)-3H-diimidazo[1,2-c: 4',5'-e]pyrimidine] the “A-2 Ki/A-1 Ki” value (Adenosine A-1 receptor [2]) was 16.40.

In the case of `CCCOC1=Nc2c(cnn2-c2ccccc2)C2=N[C@H](C)[C@@H](c3ccccc3)N12` [Compound 7, (2R-trans)-2,7-dihydro-2-methyl-3,7-diphenyl-5-propoxy-3H-Imidazo-[1,2-c]pyrazolo[4,3-s]pyrimidine], the “A-2 Ki/A-1 Ki” value (Adenosine A-1 receptor [1]) is reported as 1.17.

For `CCNC(=O)[C@H]1O[C@@H](n2cnc3c(N)ncnc32)[C@H](O)[C@@H]1O` [NECA, N-5'-ethylcarboxamidoadenosine], the “order of potency at A-2 receptors” value (A-2 receptors) is given as “NECA>2-chloroadenosine>R-PIA>CHA”.

For `CCCn1c(=O)c2[nH]c(-c3ccc(OCC(=O)NCCN)cc3)nc2n(CCC)c1=O` [XAC], the “higher affinity for A-1 adenosine receptors” value (A-1 receptors; A-1 Ki compared with Ki at A-2 receptors of the brain slice assay) is given as 40 fold and the “antagonizing the effects of adenosine analogs on heart rate versus blood pressure” value [3] is given as “much more potent in antagonizing the effects of adenosine analogs on heart rate than on blood pressure”.

For `CCCn1c(=O)c2[nH]c(-c3ccc(OCC(=O)O)cc3)nc2n(CCC)c1=O` [XCC], the adenosine receptor selectivity (A-1 receptors; A-1 versus A-2, in vitro) is listed as “non-selective”.
